Source: patent US9321737B2, “CDK8-CDK19 selective inhibitors and their use in anti-metastatic and chemopreventative methods for cancer” (SENEX BIOTECHNOLOGY INC, priority 2012, dated 2016)

Tests used:
MDA-MB-157 = assay: Breast carcinoma cell growth, MTT, MDA-MB-157; type: cell-based; conditions: five days
[1] = Pharmacokinetics in rat plasma; type: in vivo; conditions: i.p. 40 mg/kg
Water solubility = type: physicochemical; conditions: 40° C., 30 min, no pellet after centrifugation
Protocol: The compounds were also tested for solubility in 20% propylene glycol and in water, as follows. Compounds (dry powder) were dissolved in 20% propylene glycol at a concentration of 1 mM at a temperature of 40° C. with occasional vortexing. After 30 min, the solution was centrifuged at 10,000×g for 5 min. Serial dilutions of the cleared supernatant were prepared and used to measure the compound concentrations through OD reading, relative to 1 μM standard solution of the same compound. The results of the measurement were expressed as % solubility of the compound at 1 mM in 20% propylene glycol. To determine water solubility, the compounds (dry powder) were initially dissolved in water at a concentration of 100 mM at a temperature of 40° C. with occasional vortexing. After 30 min, the solution was centrifuged at 10,000×g for 5 min, and the formation of an insoluble pellet was monitored. At subsequent steps, the compound was attempted to be dissolved at lower concentrations, until no pellet was observed after centrifugation, indicating complete solution of the compound.

[2] = 12-day animal toxicity study; type: in vivo, Balb/c mice; conditions: 40 mg/kg i.p.
CDK8 = CDK8 (Homo sapiens, UniProt P49336); assay: In vitro CDK8 kinase activity inhibition (ProQinase assay kit); conditions: read-out: IC50, inhibition of CDK8 kinase activity, different assays
Chain of CDK8 (P49336 whole entry): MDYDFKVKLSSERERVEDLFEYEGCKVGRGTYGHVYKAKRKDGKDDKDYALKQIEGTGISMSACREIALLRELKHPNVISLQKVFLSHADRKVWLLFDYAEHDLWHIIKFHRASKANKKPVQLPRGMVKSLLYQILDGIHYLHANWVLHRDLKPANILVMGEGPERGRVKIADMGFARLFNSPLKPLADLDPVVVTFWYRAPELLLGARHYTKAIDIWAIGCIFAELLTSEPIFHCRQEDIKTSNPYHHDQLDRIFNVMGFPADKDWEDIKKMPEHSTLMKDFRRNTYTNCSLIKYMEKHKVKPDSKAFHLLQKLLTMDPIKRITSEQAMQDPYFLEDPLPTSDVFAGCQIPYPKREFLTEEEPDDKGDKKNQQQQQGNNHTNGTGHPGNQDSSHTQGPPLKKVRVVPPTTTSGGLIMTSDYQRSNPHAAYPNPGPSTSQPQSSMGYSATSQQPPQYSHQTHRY

[3] = system: CDKI pathway (CMV promoter stimulation by p21) in HT1080 fibrosarcoma cells; assay: CDKI pathway inhibition cellular assay (CMV-GFP induction by IPTG-inducible p21); type: cell-based, human; conditions: for activity in cell-based CDKI pathway assay: CMV-GFP
Protocol: The compounds described below are shown in Table 1 and the structures of some novel compounds according to the invention are shown in FIG. 1. […] All the compounds were tested for the ability to inhibit the CDKI pathway in a cellular assay described in our previous patent application PCT/US06/01046. This assay is based on the induction of green fluorescent protein (GFP) expression from the cytomegalovirus (CMV) promoter in human HT1080 fibrosarcoma cells that express CDKI p21 from an isopropyl-β-thio-galactoside (IPTG)-inducible promoter. The compound activity as a CDKI pathway inhibitor is measured by its ability to prevent the stimulation of the CMV promoter upon the addition of p21-inducing IPTG. CMV promoter activity is measured by the ratio of GFP fluorescence to the relative cell number, as determined by staining cellular DNA with Hoechst 33342.

MAP4K2 = biological target: T1, MAP4K2 (Homo sapiens, UniProt Q12851); assay: KinomeScan ATP pocket binding inhibition, MAP4K2; conditions: 2,000 nM
T1 construct: purchased KinomeScan, a division of Ambit Biosciences
T1 sequence (Q12851 1-820): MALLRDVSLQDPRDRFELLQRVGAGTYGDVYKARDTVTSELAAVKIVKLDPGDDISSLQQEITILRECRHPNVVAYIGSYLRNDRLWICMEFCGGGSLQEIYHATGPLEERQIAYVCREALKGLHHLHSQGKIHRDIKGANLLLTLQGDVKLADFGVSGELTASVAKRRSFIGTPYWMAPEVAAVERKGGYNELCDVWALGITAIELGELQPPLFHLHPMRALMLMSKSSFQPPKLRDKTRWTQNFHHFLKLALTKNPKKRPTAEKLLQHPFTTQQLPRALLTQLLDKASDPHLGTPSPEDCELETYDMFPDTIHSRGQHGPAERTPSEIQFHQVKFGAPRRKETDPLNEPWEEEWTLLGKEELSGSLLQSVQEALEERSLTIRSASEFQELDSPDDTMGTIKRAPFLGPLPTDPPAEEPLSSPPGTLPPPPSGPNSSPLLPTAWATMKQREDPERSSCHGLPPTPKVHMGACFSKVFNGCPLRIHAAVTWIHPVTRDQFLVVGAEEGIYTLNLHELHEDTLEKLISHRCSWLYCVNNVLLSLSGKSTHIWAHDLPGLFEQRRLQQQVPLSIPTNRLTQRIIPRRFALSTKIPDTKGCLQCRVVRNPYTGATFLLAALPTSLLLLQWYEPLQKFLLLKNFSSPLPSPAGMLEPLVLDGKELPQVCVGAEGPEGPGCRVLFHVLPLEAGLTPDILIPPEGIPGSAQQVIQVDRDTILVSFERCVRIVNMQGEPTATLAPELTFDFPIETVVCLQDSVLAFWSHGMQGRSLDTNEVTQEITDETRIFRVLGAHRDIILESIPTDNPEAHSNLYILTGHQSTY
Excerpt: (16) The results of this analysis are presented in FIGS. 6A-B in the form of an evolutionary dendrogram of the kinase family, where kinase inhibition is represented by red circles, the size of which represents the magnitude of the inhibition.

[4] = system: MDA-MB-468 TNBC tumor invasion; assay: Histological analysis of MDA-MB-468 tumor invasion (H&E); type: in vivo, female nude mice; conditions: tumors from FIG. 15B experiment
Excerpt: At the end of the experiment shown in FIG. 15B, mice were sacrificed, tumors were removed, formalin fixed, sectioned and processed for histological analysis after H&E staining.

MDA-MB-468 = assay: Breast carcinoma cell growth, MTT, MDA-MB-468; type: cell-based; conditions: five days
[5] = system: β-catenin-dependent TOPFLASH promoter in HCT116 colon carcinoma cells; assay: β-catenin-dependent TOPFLASH luciferase assay; type: cell-based; conditions: different concentrations
Protocol: The effect of different concentrations of Senexin B on luciferase expression from β-catenin-dependent TOPFLASH promoter in HCT116 colon carcinoma cells was measured as described in US Patent Publication 20120071477 for Senexin A (SNX2-1-53).

[6] = system: MDA-MB-468 triple-negative breast cancer (TNBC) cells; assay: Pretreatment and treatment, MDA-MB-468 orthotopic engraftment; type: in vivo, female nude mice
Protocol: Next we tested the effect of 5-day pretreatment with 25 mg/kg daily doses of Senexin B (i.p.) on the engraftment of MDA-MB-468 triple-negative breast cancer (TNBC) cells, injected orthotopically in the fat pad of 6-8 week old female nude mice (4 per group), following the last Senexin B treatment. The appearance of palpable tumors was scored every day. […] In the experiment shown in FIG. 9B, mice were treated (daily i.p. injections with 40 mg/kg Senexin B) both before MDA-MB-468 injection (for three days) and after the injection.

## CN1CCN(C(=O)c2ccc3cc(CCNc4ncnc5ccc(C#N)cc45)ccc3c2)CC1 [SNX2-1-165]
MDA-MB-157
  growth inhibition, MDA-MB-157: dose-dependent growth inhibition
[1]
  area under the curve (AUC): 14100 ng·h/mL
Water solubility
  Water Solubility: ≥ 50 mM
Water solubility; listed as 165
  Water Solubility: Soluble at 50 mM
[2]; 5 daily doses, 2-day break
  body weight gains at end of study: indistinguishable from the carrier-treated mice
[2]; 12-day study
  decrease in lymphocytes (blood counts): ~25%
  spleen weight decrease: ~20%
[2]; 12-day study, relative to control mice
  blood counts, other cell types: no changes
CDK8
  IC50: 24 to 50 nM
[3]; IPTG-inducible p21
  activity in cell-based CDKI pathway assay: more active than any of the previously developed SNX2-class compounds
[3]; IPTG-inducible p21, listed as Senexin B
  activity in cell-based CDKI pathway assay: potently inhibited
[3]; IPTG-induced p21, CMV-GFP / Hoechst 33342, read-out: Cell-based Assay EC50
  EC50: 530 nM
MAP4K2
  % inhibition of MAP4K2: 69%
[4]
  invasive or non-invasive tumor growth: non-invasive
MDA-MB-468
  growth inhibition, MDA-MB-468: dose-dependent growth inhibition
[5]
  luciferase expression from TOPFLASH promoter (β-catenin activity): concentration-dependent inhibition
[6]; 5-day pretreatment 25 mg/kg daily i.p.
  appearance of palpable tumors: significantly slower appearance of palpable tumors
[6]; daily i.p. 40 mg/kg, three days before and after injection
  tumor growth (tumor volumes, caliper): strong and sustained inhibition of tumor growth
